# Laboratory results published in ChEMBL document CHEMBL1221220, “Transport and signaling via the amino acid binding site of the yeast Gap1 amino acid transceptor” (Nat Chem Biol, 2009).
# Changes are numbered by the printed parent chain. Activity calls are given as the source filed them. The calls are words filed in the database; no cut-off is given here.
# How the values were obtained:
# [1] = system: T1, General amino-acid permease GAP1 (Saccharomyces cerevisiae), P19145 [A385C]; experiment: Activation of yeast Gap1 A385C mutant-mediated amino acid uptake at 10 mM
# T1 sequence (whole entry): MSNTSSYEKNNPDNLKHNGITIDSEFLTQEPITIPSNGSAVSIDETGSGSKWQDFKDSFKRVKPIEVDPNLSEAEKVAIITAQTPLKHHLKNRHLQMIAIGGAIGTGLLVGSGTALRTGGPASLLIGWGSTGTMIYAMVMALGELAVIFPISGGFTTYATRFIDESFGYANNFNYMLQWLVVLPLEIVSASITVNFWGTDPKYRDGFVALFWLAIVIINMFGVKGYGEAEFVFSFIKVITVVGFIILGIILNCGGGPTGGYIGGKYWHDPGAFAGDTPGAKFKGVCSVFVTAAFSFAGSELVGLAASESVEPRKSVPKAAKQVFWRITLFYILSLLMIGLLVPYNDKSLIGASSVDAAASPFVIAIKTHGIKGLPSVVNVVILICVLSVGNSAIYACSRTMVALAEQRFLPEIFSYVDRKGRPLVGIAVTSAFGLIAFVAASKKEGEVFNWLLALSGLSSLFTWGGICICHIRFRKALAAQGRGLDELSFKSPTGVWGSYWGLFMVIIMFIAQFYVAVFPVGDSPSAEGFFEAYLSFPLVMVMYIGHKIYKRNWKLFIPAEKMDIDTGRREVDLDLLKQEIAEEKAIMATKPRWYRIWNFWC
# [2] = system: General amino-acid permease GAP1 (Saccharomyces cerevisiae), P19145 [I394C]; experiment: Inhibition of yeast Gap1 I394C mutant-mediated trehalose activation at 10 mM
# General amino-acid permease GAP1 (Saccharomyces cerevisiae), P19145 [I394C], sequence (P19145 whole entry I394C): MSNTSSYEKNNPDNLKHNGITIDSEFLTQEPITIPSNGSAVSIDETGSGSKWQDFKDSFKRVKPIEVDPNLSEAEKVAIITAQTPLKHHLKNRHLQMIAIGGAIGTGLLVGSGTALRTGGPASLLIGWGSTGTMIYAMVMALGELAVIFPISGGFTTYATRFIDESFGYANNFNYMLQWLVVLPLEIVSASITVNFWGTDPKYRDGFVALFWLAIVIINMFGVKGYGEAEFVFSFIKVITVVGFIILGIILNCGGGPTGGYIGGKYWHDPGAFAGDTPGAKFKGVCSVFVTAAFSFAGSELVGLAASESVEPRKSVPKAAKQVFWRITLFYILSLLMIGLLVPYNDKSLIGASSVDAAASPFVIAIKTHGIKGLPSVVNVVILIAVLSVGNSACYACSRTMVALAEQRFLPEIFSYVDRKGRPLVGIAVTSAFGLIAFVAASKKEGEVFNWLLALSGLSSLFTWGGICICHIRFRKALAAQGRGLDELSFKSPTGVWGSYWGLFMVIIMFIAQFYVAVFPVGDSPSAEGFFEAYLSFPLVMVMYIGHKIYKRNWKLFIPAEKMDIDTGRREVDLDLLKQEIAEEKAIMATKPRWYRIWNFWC
# [3] = system: General amino-acid permease GAP1 (Saccharomyces cerevisiae), P19145 [Y395C]; experiment: Inhibition of yeast Gap1 Y395C mutant-mediated trehalose activation at 10 mM
# General amino-acid permease GAP1 (Saccharomyces cerevisiae), P19145 [Y395C], sequence (P19145 whole entry Y395C): as the sequence (P19145 whole entry I394C) above, with C394I, Y395C counted along it
# [4] = target: T2, General amino-acid permease GAP1 (Saccharomyces cerevisiae) (UniProt P19145); experiment: Induction of nitrogen-starved wild type sigma1278b yeast Gap1-mediated amino acid uptake at 2 mM in presence of 10 mM MTSEA treated before compound addition
# T2 sequence (whole entry): T1 sequence (whole entry) with C385A
# [5] = system: T3, General amino-acid permease GAP1 (Saccharomyces cerevisiae), P19145 [A396C]; experiment: Induction of yeast Gap1 A396C mutant-mediated […] activation at 2 mM in presence of 10 mM MTSEA treated before compound addition
# T3 sequence (whole entry): T1 sequence (whole entry) with C385A, A396C
# [6] = system: T4, General amino-acid permease GAP1 (Saccharomyces cerevisiae), P19145 [V381C]; experiment: Induction of yeast Gap1 V381C mutant-mediated amino acid uptake at 2 mM in presence of 10 mM MTSEA treated before compound addition
# T4 sequence (whole entry): T1 sequence (whole entry) with V381C, C385A
compound,measurement,setting,value
NC(=O)NCCC[C@H](N)C(=O)O,Activity,[1],inactive
same,inhibition,[2],Active
same,inhibition,[3],Active
same,inhibition,[4],Active
same,inhibition,[5],Active
same,Activity,[6],Active
